Results reported in patent US9920033B2, “Crystalline form of a substituted quinoline compound and pharmaceutical compositions thereof” (Sunshine Lake Pharma Co., Ltd., priority 2015, dated 2018).
Read-outs that look alike come from different tables or passages of the source.

Assays:
[1] = Pharmacokinetics test in beagle dogs; format: in vivo; settings: for AUC(0-inf) / Cmax / Tmax / half-life / AUC(0-t): dog, plasma, po, capsule by gavage; for AUC(0-t): read-out: AUC0-24 h
Procedure: The pharmacokinetic properties of amorphous Compound (I) or the crystalline form A of Compound (I) disclosed herein are assessed in beagle dogs. The LC/MS/MS system used in the analysis consists of an Agilent 1200 Series vacuum degasser, binary pump, well-plate autosampler, thermostatted column compartment, the Agilent G6430 Triple Quadrupole Mass Spectrometer with an electrosprayionization (ESI) source. Quantitative analysis was carried out using MRM mode. The parameters for MRM transitions are in the Table A.
An Agilent XDB-C18, 2.1×30 mm, 3.5 μM column was used for the analysis. 5 μL of the samples were injected. Analysis condition: The mobile phase was 0.1% formic acid in water (A) and 0.1% formic acid in methanol (B). The flow rate was 0.4 mL/min. And the gradient of Mobile phase was in the Table B.
Alternatively, an Agilent 6330 series LC/MS/MS spectrometer equipped with G1312A binary pumps, a G1367A autosampler and a G1314C UV detector were used in the analysis. An ESI source was used on the LC/MS/MS spectrometer. The analysis was done in positive ion mode as appropriate and the MRM transition for each analyte was optimized using standard solution. A Capcell MP-C18 100×4.6 mm I.D., […] column (Phenomenex, Torrance, Calif., USA) was used during the analysis. The mobile phase was 5 mM ammonia acetate, 0.1% MeOH in water (A): 5 mM ammonia acetate, 0.1% MeOH in acetonitrile (B) (70/30, v/v). The flow rate was 0.6 mL/min. Column was maintained at ambient temperature. 20 μL of the samples were injected.
[…] The blood samples (0.3 mL) were drawn at 0.25, 0.5, 1.0, 2.0, 3.0, 4.0, 6.0, 8.0, 12 and 24 hour time points or 0.083, 0.25, 0.5, 1.0, 2.0, 4.0, 6.0, 8.0 and 24 hour time points and centrifuged at 3,000 or 4000 rpm for 2 to 10 min. The plasma solutions were collected, and analyzed by LC/MS/MS as described above. The pharmacokinetic parameters were calculated according to non-compartment model using WinNonlin procedure.

[2] = Stability test (impurity contents by HPLC); format: physicochemical; settings: for The impurity contents: HPLC; for Increase of the impurity contents: illuminating the samples for 10 days
Procedure: A sample of crystalline form A of compound (I) (100˜200 mg) was placed on a watching glass in the form of a thin layer (thickness ≤5 mm). The samples were exposed to the following conditions: high temperature (60±2° C.) for 10 days; high humidity (25±2° C., 90%±5% relative humidity) for 10 days; illumination condition (visible light 4500 lx±500 lx with ultraviolet light not lower than 0.7 W·h/m^2, 25±2° C., 60%±5% relative humidity) for 10 days; and room temperature (30±2° C., 65%±5% relative humidity) for 10 days, respectively. The impurity contents in the samples were determined at different time points (0, 5 and 10 days) by high performance liquid chromatography (HPLC), and the absorption peaks were normalized relative to the highest peak (corresponds to compound I) which is set to 100%.

[3] = Hygroscopicity test; format: physicochemical; settings: p-toluenesulfonate; for Hygroscopicity (conclusion in words): from Table 6; for Hygroscopic capacity: 25±1° C.
Procedure: A glass weighing bottle equipped with a stopper was tarred and the weight was recorded as m1. Compound (I) in crystalline form A or amorphous form (about 1.0 g) was placed in the tared weighing bottle and capped with the stopper. The total weight was then recorded as m2. […] The weighing bottle capped with its stopper was weighed on day 5 and day 10 and the weight was recorded as m3.

[4] = dose 10 mg/kg, grain size D90 22 μm
[5] = high humidity (25±2° C., 90%±5% relative humidity), 0 day, p-toluenesulfonate
[6] = high humidity (25±2° C., 90%±5% relative humidity), 5 days, p-toluenesulfonate
[7] = high humidity (25±2° C., 90%±5% relative humidity), 10 days, p-toluenesulfonate
[8] = high temperature (60±2° C.), 0 day, p-toluenesulfonate
[9] = high temperature (60±2° C.), 5 days, p-toluenesulfonate
[10] = high temperature (60±2° C.), 10 days, p-toluenesulfonate
[11] = illuminating condition (visible light 4500 lx±500 lx with UV, 25±2° C., 60%±5% RH), 0 day, p-toluenesulfonate
[12] = illuminating condition (visible light 4500 lx±500 lx with UV, 25±2° C., 60%±5% RH), 5 days, p-toluenesulfonate
[13] = illuminating condition (visible light 4500 lx±500 lx with UV, 25±2° C., 60%±5% RH), 10 days, p-toluenesulfonate
[14] = room temperature (30±2° C., 65%±5% relative humidity), 0 day, p-toluenesulfonate
[15] = dose 9.7 mg/kg, grain size D90 32 μm

| The impurity contents [2, 5] | The impurity contents [2, 6] | The impurity contents [2, 7] | The impurity contents [2, 8] | The impurity contents [2, 9] | The impurity contents [2, 10] | The impurity contents [2, 11] | The impurity contents [2, 12] | The impurity contents [2, 13] | The impurity contents [2, 14] | Hygroscopic capacity ([3]; standing time 5 d) | Hygroscopic capacity ([3]; standing time 10 d) | Compound | further results |
| --- | --- | --- | --- | --- | --- | --- | --- | --- | --- | --- | --- | --- | --- |
| 0.35% | 0.37% | 0.39% | 0.35% | 0.37% | 0.37% | 0.35% | 0.38% | 0.48% | 0.35% | 0.03% | 0.12% | Cc1c(C(=O)Nc2ccc(Oc3ccnc4cc(OCC(C)(C)O)ccc34)c(F)c2)c(=O)n(-c2ccccc2)n1C.Cc1ccc(S(=O)(=O)O)cc1 [Form A, N-(3-fluoro-4-((7-(2-hydroxy-2-methylpropoxy)quinolin-4-yl)oxy)phenyl)-1,5-dimethyl-3-oxo-2-phenyl-2,3-dihydro-1H-pyrazole-4-carboxamide p-toluenesulfonate] | Exposure and bioavailability in vivo (conclusion in words) ([1]; Cmax, AUC0-24h and AUC0-∞ compared with amorphous Compound (I)): good exposure and bioavailability; AUC(0-inf) [1, 4]: 180000 ng·h/mL; Cmax [1, 4]: 6190 ng/mL; Tmax [1, 4]: 4 h; half-life [1, 4]: 25 h; AUC(0-t) [1, 4]: 131000 ng·h/mL; Increase of the impurity contents ([2]; listed as crystalline form A of Compound (I), p-toluenesulfonate): 0.13%; Hygroscopicity (conclusion in words) ([3]; listed as crystalline form A of compound (I)): not hygroscopic |
| 0.14% | 0.11% | 0.07% | 0.14% | 0.13% | 0.10% | 0.14% | 0.36% | 0.56% | 0.14% | 7.74% | 8.48% | Cc1c(C(=O)Nc2ccc(Oc3ccnc4cc(OCC(C)(C)O)ccc34)c(F)c2)c(=O)n(-c2ccccc2)n1C.Cc1ccc(S(=O)(=O)O)cc1 [Amorphous, N-(3-fluoro-4-((7-(2-hydroxy-2-methylpropoxy)quinolin-4-yl)oxy)phenyl)-1,5-dimethyl-3-oxo-2-phenyl-2,3-dihydro-1H-pyrazole-4-carboxamide p-toluenesulfonate] | AUC(0-inf) [1, 15]: 55300 ng·h/mL; Cmax [1, 15]: 2640 ng/mL; Tmax [1, 15]: 3.33 h; half-life [1, 15]: 15 h; AUC(0-t) [1, 15]: 37300 ng·h/mL; Increase of the impurity contents ([2]; listed as amorphous Compound (I), p-toluenesulfonate): 0.42%; The impurity contents ([2]; room temperature (30±2° C., 65%±5% relative humidity), 5 days): 0.07%; The impurity contents ([2]; room temperature (30±2° C., 65%±5% relative humidity), 10 days): 0.07%; Hygroscopicity (conclusion in words) ([3]; listed as amorphous Compound (I)): hygroscopic |
